Laboratory results published in the supplement of paper PMC10307832.

Experiments:
Assay in all cases: relative viability (nuclei count vs DMSO), 5 days (fraction); higher = more cells survive
Erlotinib + Trametinib = compound: C#Cc1cccc(Nc2ncnc3cc(OCCOC)c(OCCOC)cc23)c1 [Erlotinib] + CC(=O)Nc1cccc(-n2c(=O)n(C3CC3)c(=O)c3c(Nc4ccc(I)cc4F)n(C)c(=O)c(C)c32)c1 [Trametinib] (partner 0.02 µM)
Procedure, shortened: (§1)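 Relative viability divides the nuclei count in treated wells by that in vehicle wells. Lung cancer cell lines were seeded in 1536-well plates, dosed by pin tool the next day, and fixed and stained after 5 days in one step with final 0.05% Triton X-100, 1% formaldehyde and 1 ug/ml Hoechst. Dosing was a single drug or a fixed anchor-drug dose plus five library-drug doses (not always all listed) in √10 steps, and values are medians of duplicate plates imaged at 4×.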

Erlotinib + Luminespib = compound: C#Cc1cccc(Nc2ncnc3cc(OCCOC)c(OCCOC)cc23)c1 [Erlotinib] + CCNC(=O)c1noc(-c2cc(C(C)C)c(O)cc2O)c1-c1ccc(CN2CCOCC2)cc1 [Luminespib] (partner 0.01 µM)
Procedure, shortened: as §1

Erlotinib + Decitabine = compound: C#Cc1cccc(Nc2ncnc3cc(OCCOC)c(OCCOC)cc23)c1 [Erlotinib] + Nc1ncn([C@H]2C[C@H](O)[C@@H](CO)O2)c(=O)n1 [Decitabine] (partner 2 µM)
Procedure, shortened: as §1

Erlotinib + OSI-027 = compound: C#Cc1cccc(Nc2ncnc3cc(OCCOC)c(OCCOC)cc23)c1 [Erlotinib] + COc1cccc2cc(-c3nc([C@H]4CC[C@H](C(=O)O)CC4)n4ncnc(N)c34)[nH]c12 [OSI-027] (partner 0.5 µM)
Procedure, shortened: as §1

AT9283 + Tozasertib = compound: O=C(Nc1c[nH]nc1-c1nc2ccc(CN3CCOCC3)cc2[nH]1)NC1CC1 [AT9283] + Cc1cc(Nc2cc(N3CCN(C)CC3)nc(Sc3ccc(NC(=O)C4CC4)cc3)n2)n[nH]1 [Tozasertib] (partner 0.1 µM)
Procedure, shortened: as §1

| Cell Line | relative viability (Erlotinib + Trametinib; first compound 0.02 µM) | relative viability (Erlotinib + Trametinib; first compound 0.2 µM) | relative viability (Erlotinib + Trametinib; first compound 0.6325 µM) | relative viability (Erlotinib + Trametinib; first compound 2 µM) | relative viability (Erlotinib + Luminespib; first compound 0.02 µM) | relative viability (Erlotinib + Luminespib; first compound 0.2 µM) | relative viability (Erlotinib + Luminespib; first compound 0.6325 µM) | relative viability (Erlotinib + Luminespib; first compound 2 µM) | relative viability (Erlotinib + Decitabine; first compound 0.02 µM) | relative viability (Erlotinib + Decitabine; first compound 0.2 µM) | relative viability (Erlotinib + Decitabine; first compound 0.6325 µM) | relative viability (Erlotinib + Decitabine; first compound 2 µM) | relative viability (Erlotinib + OSI-027; first compound 0.02 µM) | relative viability (Erlotinib + OSI-027; first compound 0.2 µM) | relative viability (Erlotinib + OSI-027; first compound 0.6325 µM) | relative viability (Erlotinib + OSI-027; first compound 2 µM) | relative viability (AT9283 + Tozasertib; first compound 0.003 µM) | relative viability (AT9283 + Tozasertib; first compound 0.03 µM) | relative viability (AT9283 + Tozasertib; first compound 0.09487 µM) | relative viability (AT9283 + Tozasertib; first compound 0.3 µM) |
| --- | --- | --- | --- | --- | --- | --- | --- | --- | --- | --- | --- | --- | --- | --- | --- | --- | --- | --- | --- | --- |
| 201T | 0.709 | 0.675 | 0.694 | 0.636 | 1.01 | 1.03 | 1.06 | 0.874 | 0.851 | 0.793 | 0.824 | 0.8 | 0.804 | 0.862 | 0.846 | 0.664 | 0.871 | 0.6 | 0.35 | 0.302 |
| A549 |  |  |  |  |  |  |  |  | 0.263 | 0.294 | 0.266 | 0.262 |  |  |  |  |  |  |  |  |
| A-427 | 0.885 | 0.752 | 0.882 | 0.749 | 1.18 | 0.932 | 0.857 | 0.76 | 0.585 | 0.562 | 0.592 | 0.582 | 0.449 | 0.537 | 0.468 | 0.482 | 0.186 | 0.179 | 0.168 | 0.161 |
| ABC-1 |  |  |  |  |  | 0.684 | 0.771 | 0.601 |  | 0.962 | 0.923 | 1.12 | 0.582 | 0.386 | 0.361 | 0.346 | 0.198 | 0.17 | 0.172 | 0.183 |
| BEN | 1.01 | 0.883 | 1.24 | 1.16 | 0.369 | 0.34 | 0.442 | 0.693 | 0.711 | 0.72 | 0.841 | 0.66 | 0.334 | 0.301 | 0.317 | 0.304 | 0.598 | 0.503 | 0.387 | 0.376 |
| CAL-12T | 0.334 | 0.279 | 0.31 | 0.173 | 0.3 | 0.32 | 0.377 | 0.226 |  |  |  |  | 0.672 | 0.47 | 0.219 | 0.26 | 0.31 | 0.29 | 0.212 | 0.215 |
| COR-L23 | 0.67 | 0.636 | 0.617 | 0.545 | 0.686 | 0.637 | 0.693 | 0.588 | 0.425 | 0.432 | 0.49 | 0.434 | 0.87 | 0.879 | 0.721 | 0.512 | 0.278 | 0.135 | 0.112 | 0.132 |
| COR-L 105 | 0.455 | 0.336 | 0.415 | 0.362 | 0.779 | 0.472 | 0.378 | 0.216 | 0.729 | 0.463 | 0.41 | 0.351 | 0.595 | 0.262 | 0.365 | 0.27 | 0.384 | 0.318 | 0.283 | 0.288 |
| ChaGo-K-1 | 0.886 | 0.874 | 0.909 | 0.832 | 0.635 | 0.541 | 0.604 | 0.505 | 0.528 | 0.51 | 0.496 | 0.518 | 0.695 | 0.55 | 0.549 | 0.434 | 0.196 | 0.208 | 0.215 | 0.236 |
| EKVX | 0.367 | 0.2 | 0.191 | 0.162 | 0.833 | 0.615 | 0.444 | 0.207 | 0.341 | 0.232 | 0.234 | 0.212 | 0.679 | 0.506 | 0.34 | 0.187 | 0.377 | 0.312 | 0.317 | 0.183 |
| EMC-BAC-2 |  | 0.765 | 0.901 | 0.739 | 1.12 | 1.06 | 1.19 | 1.03 |  | 0.882 | 0.951 | 0.82 | 0.394 | 0.416 | 0.353 | 0.302 | 0.283 | 0.192 | 0.198 | 0.133 |
| EPLC-272H | 0.322 | 0.282 | 0.282 | 0.207 | 0.176 | 0.233 | 0.326 | 0.196 | 0.362 | 0.332 | 0.324 | 0.316 | 0.342 | 0.304 | 0.26 | 0.196 | 0.306 | 0.192 | 0.203 | 0.159 |
| H3255 | 0.632 | 0.412 | 0.326 | 0.214 | 0.768 | 0.531 | 0.326 | 0.295 |  | 0.433 | 0.244 | 0.168 | 0.638 | 0.345 | 0.207 | 0.202 | 0.664 | 0.358 | 0.2 | 0.161 |
| HARA | 0.709 | 0.39 | 0.406 | 0.291 | 0.784 | 0.417 | 0.586 | 0.255 | 0.69 | 0.49 | 0.374 | 0.353 | 0.575 | 0.492 | 0.44 | 0.217 | 0.154 | 0.1 | 0.0825 | 0.0852 |
| HCC-15 | 0.394 | 0.344 | 0.339 | 0.347 | 0.241 | 0.376 | 0.236 | 0.208 | 0.642 | 0.623 | 0.644 | 0.563 | 0.702 | 0.736 | 0.676 | 0.588 | 0.25 | 0.134 | 0.126 | 0.0965 |
| HCC-44 | 1.07 | 1.01 | 1.1 | 0.981 | 0.912 | 1.02 | 1.62 | 1.03 | 1 | 0.972 |  | 1 | 0.505 | 0.571 | 0.412 | 0.435 | 0.94 | 0.621 | 0.294 | 0.321 |
| HCC-78 | 0.768 | 0.524 | 0.683 | 0.58 |  |  |  |  | 0.728 | 0.743 | 0.705 | 0.584 | 0.333 | 0.359 | 0.379 | 0.281 | 0.501 | 0.354 | 0.267 | 0.291 |
